In ChEMBL document CHEMBL2094269, “WEHI/Eskitis Trypanosoma b. brucei screening data”:
pIC50: −log10 of the molar value. “And” between values parts separate entries of the source, which are not always exact repeats. Equal values may be shown once.

Legend:
[1] = DNDI: Cytotoxicity against human MRC-5 lung fibroblast cells.; conditions: IC50
[2] = system: Trypanosoma brucei brucei; assay: microbe, parasite or virus in culture; assay type: functional, organism-based, STIB 795
Description: DNDI: Inhibition of Human African Trypanosomiasis (HAT), STIB 795, in vitro

Row | SMILES | pIC50 ([2]; Trypanosoma brucei, STIB 795) | pIC50 [2] | pIC50 [1]
1 | COc1ccc(-c2cc3ccccc3n2CC(O)CNCCO)cc1 (centres undefined) | 5.29 | – | < 4.68
2 | CCN(CC)c1ccc(/C=N/NC(=O)c2cccs2)c(O)c1 | 4.90 | – | < 4.38
3 | c1coc(CNc2c3ccccc3nc3ccccc23)c1 | 5.56 | – | < 5.38
4 | Cc1cc(C)c2nc(C)cc(Nc3ccc4c(c3)OCCO4)c2c1 | 5.41 | – | < 4.38
5 | Oc1c(C(Nc2nccs2)c2ccc(F)cc2)ccc2cccnc12 (centres undefined) | – | 5.63 and < 4.98 | < 4.68
6 | COc1ccccc1C(CCNC(C)c1ccccc1)C1CCOC(C)(C)C1 (centres undefined) | 5.32 | – | < 4.38
7 | Clc1ccc(OCCCCCN2CCNCC2)c(Cl)c1 | 5.45 | – | < 4.38
8 | CN1c2ccccc2N(C)C1c1ccc(O)cc1 | 5.46 | – | < 4.38
9 | CCCCC1=NN(C(=O)c2ccccn2)C(O)(C(F)(F)F)C1 (centres undefined) | 5.27 | – | < 4.68
10 | Oc1c(C(Nc2ccccn2)c2ccc(C(F)(F)F)cc2)ccc2cccnc12 (centres undefined) | 5.49 | – | < 4.38
11 | Cn1ccc(/C=C2/CCC/C(=C\c3ccn(C)n3)C2=O)n1 | 5.25 | – | < 4.68
12 | Cc1ccnc(NC(c2ccc3cccnc3c2O)c2sccc2C)c1 (centres undefined) | 5.48 | – | < 4.68
13 | N=c1n(Cc2ccccc2)c2ccccc2n1CC(O)COc1ccccc1 (centres undefined) | 5.12 | – | < 4.38
14 | CN(CCO)CC(O)Cn1c2ccc(Cl)cc2c2cc(Cl)ccc21 (centres undefined) | 5.31 | – | < 4.68
15 | CCOc1cc2c(cc1OCC)C(c1ccc(Cl)cc1)NCC2 (centres undefined) | 5.25 | – | < 4.68
16 | COC(=O)C(NC(=O)c1c(Cl)sc2nnsc12)C(C)C (centres undefined) | 5.39 | – | < 5.38
17 | CC(Cc1ccco1)NC(=O)c1cccc(NC(=O)C2=CSCCO2)c1 (centres undefined) | 5.24 | – | < 4.38
18 | CC1(C)CC2CC(C)(CN2C(=O)COCc2cc(-c3cccs3)on2)C1 (centres undefined) | 5.26 | – | < 4.38
19 | CCCCC(=O)NC(c1ccc(N(C)C)cc1)c1ccc2cccnc2c1O (centres undefined) | 5.23 | – | < 4.68
20 | CC(C)Cc1ccc(C(C)C(=N)NC2CCCCC2)cc1 (centres undefined) | 5.26 | – | < 4.68
21 | O=C(NC(c1ccc2c(c1)OCO2)c1ccc2cccnc2c1O)c1ccccc1 (centres undefined) | 5.31 | – | < 5.38

Row | SMILES | pIC50 ([2]; Trypanosoma brucei, STIB 795) | pIC50 [2] | pIC50 [1]
22 | COc1ccccc1-c1nc(SCC(=O)c2ccc(O)c(O)c2)n[nH]1 | 5.57 | – | < 4.38
23 | CCOc1cc(CNCCO)cc(Cl)c1OCc1ccccc1F | 5.61 | – | < 4.68
24 | Cc1ccc(/N=N/c2ccc(O)c3ncccc23)cc1C | 5.31 | – | < 4.68
25 | CCCc1c(CC)c(=N)c2ccccc2n1C | 5.34 | – | < 4.38
26 | O=C(COc1ccccc1)N/N=C/c1sc2ccccc2c1O | 5.10 | – | < 4.68
27 | NCC12CC3CC(C1)CC(c1ccc(Cl)c(Cl)c1)(C3)C2 | 5.60 | – | < 4.38
28 | COc1ccccc1N1CCN(Cc2cc(Cl)c3cccnc3c2O)CC1 | 5.22 | < 4.98 | < 5.38
29 | CN(C)CCCC1c2ccccc2Sc2ccc(Cl)cc2C1O (centres undefined) | 5.23 | – | < 4.68
30 | COc1ccc(C(=N)NOC(=O)c2ccco2)cc1 | 5.43 | – | < 4.68
31 | O=C1/C(=C/c2ccccc2)CCS(=O)(=O)c2ccccc21 | 5.26 | – | < 4.38
32 | CC(C)(C)C/C(=N\NC(=N)N)c1ccccc1 | 5.27 | – | < 4.68
33 | CCCn1c(=O)c2c(nc3n2CCN3Cc2ccco2)n(C)c1=O | 5.31 | – | < 4.38
34 | N=c1n(CCOc2ccccc2)c2ccccc2n1CCN1CCCCC1 | – | 5.53 and < 4.98 | < 4.68
35 | Cc1cc2c(c(=O)o1)C(c1ccc(Br)s1)C(C#N)=C(N)O2 (centres undefined) | – | 5.30 and < 4.98 | < 4.38
36 | Cc1ccc2[nH]c3c(c2c1)CCC/C3=N\N=C(N)N | 5.07 | – | < 4.68
37 | O=c1cc(OC2=CS(=O)(=O)c3ccccc32)c2ccccc2o1 | 5.44 | – | 5.22
38 | Nc1ccc2ccc3cccnc3c2n1 | 5.62 | – | < 5.38
39 | O=C(c1ccc(Cl)cc1)C(CN1CCOCC1)c1ccccc1 (centres undefined) | 5.51 | 5.40 | < 4.68
40 | CC(C)(C)c1ccc(CN2CCCn3c2nc2ccccc23)cc1 | 5.25 | – | < 4.68
41 | Cc1ccc(C(=O)C(CO)n2ccnc2)cc1 (centres undefined) | 5.69 | – | < 4.38
42 | N=c1n(CCOc2ccccc2)c2ccccc2n1Cc1ccc(Cl)cc1 | 5.18 | – | < 4.38

Row | SMILES | pIC50 ([2]; Trypanosoma brucei, STIB 795) | pIC50 [2] | pIC50 [1]
43 | CCCN(CCC)C(=O)Cn1ccc(=N)c2ccccc21 | 5.45 | – | < 4.38
44 | COc1ccc(C)cc1/N=N/c1ccc(O)c2nc(/C=N/O)ccc12 | 5.63 | – | < 4.68
45 | Oc1c(/C=N/NC(=S)Nc2cccc(F)c2)cc2c3c1CCCN3CCC2 | 5.51 | – | < 4.38
46 | Cc1ccc2c(c1)C(=O)C(CN1CCOCC1)CO2 (centres undefined) | 5.66 | – | < 4.68
47 | Nc1nc(NN2CCCCC2)nc(-c2cc(Cl)ccc2O)n1 | 5.38 | – | < 4.68
48 | N=C(Nc1nc(-c2ccccn2)cc2ccccc12)c1cccc(Cl)c1 | 5.22 | – | < 4.38
49 | CC(C)=C1C2CCC1C1C(=O)N(NC(=O)C(C)Oc3ccc(C)c(C)c3)C(=O)C21 (centres undefined) | 5.27 | – | < 4.38
50 | Clc1ccnc2c1ccc1nn[nH]c12 | 5.36 | – | < 4.38
51 | Cc1cc(OCC(O)CNC(C)c2ccccc2)cc(C)c1Cl (centres undefined) | 5.33 | – | < 4.38
52 | COc1ccc(O)c(/C=N/Nc2ccccn2)c1 | 5.33 | – | < 4.68
53 | CC(CON1C(N)=NC(N)=NC1(C)C)Cc1cc(Cl)ccc1Cl (centres undefined) | 5.33 | – | < 4.68
54 | CN1CCN(Cc2cc(Br)c3cccnc3c2O)CC1 | 5.29 | – | < 5.38
55 | COc1ccc(CNCCc2c[nH]c3ccccc23)c(OC)c1C | 5.28 | – | < 4.68
56 | CCOc1ccc(/C=N/NC(=N)N)cc1 | 5.25 | – | < 4.38
57 | CCOc1ccc(OCc2ccc(C(=O)N3CCCC(C)C3)cc2)cc1 (centres undefined) | 5.59 | – | < 4.38
58 | O=S1(=O)CCC(N2COc3c(cc(Cl)c4cccnc34)C2)C1 (centres undefined) | 5.29 | – | < 5.38
59 | COCc1cc(O)nc(Nc2nc3ccc(C)cc3o2)n1 | 5.29 | – | < 4.68
60 | COc1ccc(C(=O)C(C)N2C=CC=C/C2=C2\C=CC=CN2)cc1 (centres undefined) | 5.37 | – | < 4.38
61 | Cc1ccccc1OCCn1c(=N)n(Cc2ccccc2F)c2ccccc21 | 5.31 | – | < 4.68
62 | COc1ccc(C2=Nn3c([n+](C)c4cc(C)c(C)cc43)SC2)cc1OC | 5.27 | – | < 4.68
63 | CCC(=O)N(CC(CC(C)C)N1CCN(C)CC1)c1ccc(C2CCCC2)cc1 (centres undefined) | 5.32 | – | < 4.38

Continued, in another order:

Row | pIC50 ([2]; Trypanosoma brucei, STIB 795) | pIC50 [2] | SMILES | pIC50 [1]
64 | 6.53 | – | CC[n+]1c(/C=C/c2c[nH]c3ccccc23)ccc2cc(C)ccc21 | 5.43
65 | 6.69 | – | COc1ccc(-c2cc(-c3ccccc3)c(C#N)c([S+](C)[O-])n2)cc1 (centres undefined) | < 4.38
66 | 7.52 | – | O=C1/C(=C/c2ccncc2)CCC/C1=C\c1ccncc1 | 5.71
67 | 5.78 | – | Cc1ccc(C(=O)ON=C(/C=C/c2ccccc2)/C=C/c2ccccc2)cc1 | < 4.38
68 | 6.61 | – | Cc1cc(C)nc(C(=N)Nc2nc(-c3ccccn3)cc3ccccc23)n1 | 6.67
69 | 6.08 | – | CC1CC(C)(C)Nc2ccc(OCc3cccc4ccccc34)cc21 (centres undefined) | < 4.68
70 | 6.60 | – | O/N=C1\C=Cc2[nH]c(-c3ccccc3)cc2\C1=N/O | 6.14
71 | 6.36 | – | COc1ccc(Nc2nc3ccccc3c(=O)o2)cc1 | < 4.68
72 | 7.19 | – | COC(=O)c1[nH]cc2c3cccnc3c3ncccc3c12 | 6.23
73 | 6.08 | – | O=C(CC(Nc1ccc2ccccc2c1)c1ccncc1)c1cccnc1 (centres undefined) | < 4.38
74 | 6.03 | – | CC(=O)NC(c1cccs1)c1ccc2cccnc2c1O (centres undefined) | 6.01
75 | 6.22 | – | N/C(Cc1cccc2ccccc12)=N\OC(=O)N1CCOCC1 | < 4.68
76 | 6.01 | – | Nc1ccc2c(c1)C(=O)C(=O)c1cc(N)ccc1-2 | < 4.68
77 | 6.47 | – | Cc1cccc(C(=N)NOC(=O)c2ccoc2C)c1 | < 4.98
78 | 5.70 | – | Cc1ccccc1-n1sc2ccccc2c1=O | < 4.68
79 | 5.69 | – | CC(C)n1c(=N)n(CCOc2ccc(Br)cc2)c2ccccc21 | < 5.38
80 | 6.30 | – | CC(C)OCc1cc(CN2CCOCC2)c(O)c2ncccc12 | 6.04

Row | pIC50 ([2]; Trypanosoma brucei, STIB 795) | pIC50 [2] | SMILES | pIC50 [1]
81 | 6.09 | – | CCc1cc(OCCCCCN2CCNCC2)ccc1Cl | < 4.68
82 | 5.99 | – | O=C(O)c1ccc(NNc2c3ccccc3nc3ccccc23)cc1 | < 4.38
83 | 6.38 | – | Cc1ccccc1C(=O)O/N=C(\N)Cc1cccs1 | < 4.68
84 | 6.13 | – | N=C(NOC(=O)N1CCOCC1)c1ccc(Br)cc1 | < 4.68
85 | 6.51 | – | CN1C=C/C(=C\C=C2/C=Nc3ccccc32)c2ccccc21 | < 5.38
86 | 6.45 | – | CN(C)c1ccc(/C=C\C=C\c2ccc[n+](C)c2)cc1 | < 4.68
87 | 6.11 | – | Cc1ccc(C(=O)O/N=C(\N)Cc2cccs2)c(Cl)c1 | < 4.38
88 | 6.13 | – | CC(C)CC[n+]1ccccc1C=Cc1ccc(N(C)C)cc1 | < 4.98
89 | 6.34 | – | CN(C)c1ccc(/C=C/c2cc[n+](C)cc2)cc1 | < 4.68
90 | 5.71 | – | c1ccc(COc2ccc(-c3cc(C4CCNCC4)[nH]n3)cc2)cc1 | < 4.98
91 | 7.07 | – | CCN1C=Cc2ccccc2/C1=C\c1ccc2ccccc2[n+]1CC | < 5.38
92 | > 7.70 | – | CN(C)c1ccc2nc3ccc(=[N+](C)C)cc-3sc2c1 [METHYLENE BLUE CATION] | < 5.68
93 | 5.91 | – | CCCOc1ccc(C(=O)Nc2ccc(Cc3ccncc3)cc2)cc1 | 5.34
94 | 5.80 | – | CCCC(=O)NC(c1ccccc1Cl)c1cc(Cl)c2cccnc2c1O (centres undefined) | < 4.68
95 | 5.84 | – | O=C1C=C/C(=N\Nc2ccc3c(c2)OCCO3)c2cccnc21 | < 4.68
96 | 5.84 | – | Cc1cccc2cc(-c3ccccc3)c(N3CCNCC3)nc12 | < 5.38
